# Experimental data taken from the supplement of paper PMC10307832.
# Legend:
# Assay in all cases: relative viability (nuclei count vs DMSO), 5 days (fraction); higher = more cells survive
# Everolimus + Lapatinib = compound: CO[C@H]1C[C@@H]2CC[C@@H](C)[C@@](O)(O2)C(=O)C(=O)N2CCCC[C@H]2C(=O)O[C@H]([C@H](C)C[C@@H]2CC[C@@H](OCCO)[C@H](OC)C2)CC(=O)[C@H](C)/C=C(\C)[C@@H](O)[C@@H](OC)C(=O)[C@H](C)C[C@H](C)/C=C/C=C/C=C/1C [Everolimus] + CS(=O)(=O)CCNCc1ccc(-c2ccc3ncnc(Nc4ccc(OCc5cccc(F)c5)c(Cl)c4)c3c2)o1 [Lapatinib] (partner 2 µM)
# Procedure, shortened: (§1)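 The day after seeding in 1536-well plates, lung cancer cell lines were treated by pin tool with a single drug, or with a fixed anchor-drug dose together with five library-drug doses (not always all listed) in √10 steps. After 5 days, a combined fix-and-stain solution (final 0.05% Triton X-100, 1% formaldehyde, 1 ug/ml Hoechst) was added. Nuclei counted on 4× images gave relative viability as treated counts over vehicle counts, reported as the median of duplicate plates.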
# Everolimus + Crizotinib = compound: CO[C@H]1C[C@@H]2CC[C@@H](C)[C@@](O)(O2)C(=O)C(=O)N2CCCC[C@H]2C(=O)O[C@H]([C@H](C)C[C@@H]2CC[C@@H](OCCO)[C@H](OC)C2)CC(=O)[C@H](C)/C=C(\C)[C@@H](O)[C@@H](OC)C(=O)[C@H](C)C[C@H](C)/C=C/C=C/C=C/1C [Everolimus] + C[C@@H](Oc1cc(-c2cnn(C3CCNCC3)c2)cnc1N)c1c(Cl)ccc(F)c1Cl [Crizotinib] (partner 1 µM)
# Procedure, shortened: as §1
# Everolimus + Tozasertib = compound: CO[C@H]1C[C@@H]2CC[C@@H](C)[C@@](O)(O2)C(=O)C(=O)N2CCCC[C@H]2C(=O)O[C@H]([C@H](C)C[C@@H]2CC[C@@H](OCCO)[C@H](OC)C2)CC(=O)[C@H](C)/C=C(\C)[C@@H](O)[C@@H](OC)C(=O)[C@H](C)C[C@H](C)/C=C/C=C/C=C/1C [Everolimus] + Cc1cc(Nc2cc(N3CCN(C)CC3)nc(Sc3ccc(NC(=O)C4CC4)cc3)n2)n[nH]1 [Tozasertib] (partner 0.1 µM)
# Procedure, shortened: as §1
# Everolimus + Decitabine = compound: CO[C@H]1C[C@@H]2CC[C@@H](C)[C@@](O)(O2)C(=O)C(=O)N2CCCC[C@H]2C(=O)O[C@H]([C@H](C)C[C@@H]2CC[C@@H](OCCO)[C@H](OC)C2)CC(=O)[C@H](C)/C=C(\C)[C@@H](O)[C@@H](OC)C(=O)[C@H](C)C[C@H](C)/C=C/C=C/C=C/1C [Everolimus] + Nc1ncn([C@H]2C[C@H](O)[C@@H](CO)O2)c(=O)n1 [Decitabine] (partner 2 µM)
# Procedure, shortened: as §1
Cell Line,relative viability (Everolimus + Lapatinib; first compound 0.01 µM),relative viability (Everolimus + Lapatinib; first compound 0.03162 µM),relative viability (Everolimus + Lapatinib; first compound 0.1 µM),relative viability (Everolimus + Lapatinib; first compound 0.3162 µM),relative viability (Everolimus + Lapatinib; first compound 1 µM),relative viability (Everolimus + Crizotinib; first compound 0.01 µM),relative viability (Everolimus + Crizotinib; first compound 0.03162 µM),relative viability (Everolimus + Crizotinib; first compound 0.1 µM),relative viability (Everolimus + Crizotinib; first compound 0.3162 µM),relative viability (Everolimus + Crizotinib; first compound 1 µM),relative viability (Everolimus + Tozasertib; first compound 0.01 µM),relative viability (Everolimus + Tozasertib; first compound 0.03162 µM),relative viability (Everolimus + Tozasertib; first compound 0.1 µM),relative viability (Everolimus + Tozasertib; first compound 0.3162 µM),relative viability (Everolimus + Tozasertib; first compound 1 µM),relative viability (Everolimus + Decitabine; first compound 0.01 µM),relative viability (Everolimus + Decitabine; first compound 0.03162 µM),relative viability (Everolimus + Decitabine; first compound 0.1 µM),relative viability (Everolimus + Decitabine; first compound 0.3162 µM),relative viability (Everolimus + Decitabine; first compound 1 µM)
LC-2-ad,0.924,0.874,0.941,0.931,1.08,0.542,0.48,0.384,0.449,0.417,0.434,0.384,0.385,0.423,0.343,0.846,0.779,0.888,0.819,0.726
LCLC-97TM1,0.611,0.869,0.759,0.817,0.852,0.406,0.28,0.485,0.291,0.216,0.189,0.216,0.181,0.196,0.171,0.197,0.205,0.184,0.208,0.218
LK-2,0.664,0.533,0.787,0.471,0.449,0.24,,0.22,0.284,0.227,0.165,,0.179,0.17,0.17,0.268,0.156,0.19,0.194,0.193
LOU-NH91,0.553,0.56,0.58,0.615,0.546,0.664,0.695,0.627,0.573,0.58,0.637,0.608,0.63,0.609,0.656,0.718,0.76,0.702,0.699,0.686
LU99A,0.621,0.548,0.573,0.52,0.55,0.415,0.413,0.35,0.451,0.351,0.23,0.282,0.252,0.222,0.263,0.537,0.514,0.43,0.485,0.566
LXF-289,0.908,0.951,0.889,0.889,0.899,0.885,0.978,0.904,0.88,0.888,0.217,0.217,0.162,0.205,0.193,0.358,0.359,0.306,0.38,0.411
NCI-H23,0.736,0.685,0.491,0.695,0.693,0.486,0.33,0.288,0.398,0.359,0.396,0.295,0.299,0.358,0.217,0.264,0.283,0.257,0.259,0.254
